Experimental data taken from US20080070987A1, “META-XYLYLENEDIAMINE VANADATE SALTS” (priority 2006, published 2008).

Columns and labels:
[1] = system: streptozotocin-induced diabetic rats; assay: Chronic oral treatment of streptozotocin-induced diabetic rats, glycemia; type: in vivo, rat; conditions: for glycemia: oral, after the dosage increase to 10 μmol/kg/day; for effect on glycemia over the whole oral treatment, in words: streptozotocin (45 mg/kg) diabetic rats, daily oral administration for 17 days
Procedure: FIG. 4 is a graphical illustration of the chronic and oral treatment with hexaquis(benzylammonium) decavanadate on glycemia of diabetic rats by estreptozotocine. In FIG. 4, [G] corresponds to the blood concentration of glucose (expressed in mg/dl) measured at different days of treatment (t/d). Diabetic rats were treated with a single daily oral dose of hexaquis(benzylammonium) decavanadate (5 μmol/kg/day between day 0 and day 7 marked with an arrow, and 10 μmol/kg/day from 7 days of treatment) (black squares) or with identical dose of sodium decavanadate (black diamonds). Glycemia in non-diabetic rats is also represented in the figure (black triangles).
Diabetes was induced in rats by intravenous administration of streptozotocin, and subsequently, a hexaquis(benzylammonium) decavanadate or sodium decavanadate unique dose was administered to the rats. […] After seven days of treatment, the dose was increased at 10 μmol/kg/day which was maintained for an additional ten days. […] Thus, glycemia in sodium decavanadate treated rats was approximately 450 mg/dl and glycemia of hexaquis(benzylammonium) decavanadate treated rats was approximately 250 mg/dl.
(§1) Male Wistar rats weighting 180-220 g were purchased from Harlan (Interfauna Ibérica S.A., Spain). Diabetes was induced by a single intraperitoneal injection of a freshly prepared solution of streptozotocin (in some studies the dose was 45 mg/kg body weight and in some others 100 mg/kg body weight dissolved in 50 mM citrate buffer, pH 4.5). Only diabetic animals with glycemia above 300 mg/dl were used. The animals were housed in animal quarters at 22° C. with a 12 h light/12 h dark cycle and were fed ad libitum. All procedures used were approved by the animal ethical committee of the University of Barcelona, Spain. Male mice C57 BL/Ks bearing the db/db mutation (Jackson Laboratories, Bar Harbor, Me.) were purchased from Harlan France (Gannat, France). C57BL/6J male mice were assigned for 16 weeks to very high-fat diet containing (in kcal): 72% from fat, 28% from proteins and <1% from carbohydrates (Burcelin et al., 2002, Am. J. Physiol. Endocrinol. Metab 282: E834-E842).
(§2) Osmotic minipumps delivering B6V10 (2.5 μmol/kg body wt/day) or decavanadate (2.5 μmol/kg body wt/day) were implanted subcutaneously in diabetic rats anaesthetised by ketamine hydrochloride (95 mg/kg) and xylasine (10 mg/kg). […] Glycemia was measured on arterio-venous blood collected from the tail vessels at 09:00 am for two weeks, before the administration of vanadate. Insulin concentrations were determined before and after treatment. In another set of experiments, B6V10 was orally administered at a single dose of 5 μmol/kg/day during the first week and 10 μmol/kg/day during 2 additional weeks by gastric gavage. A control group received the corresponding decavanadate salt in the absence of benzylamine. At the end of the treatment, animals were sacrificed and the liver, fat pad, heart and lung were kept at −80° C. and the plasma at −20° C. until their use for in vitro analysis.
(§3) In glucose tolerance tests and in chronic treatments, circulating glucose concentrations were determined by a rapid glucose analyser (Accutrend® Sensor Comfort, Roche, Basel. Switzerland). Plasma insulin (IRI) concentration was determined by ELISA method using a kit obtained from Crystal Chem. Inc. (Downers Grove, Ill.). Plasma triglycerides (Biosystems, Barcelona, Spain) and NEFAS (Wako Chemicals, Neuss, Germany) were determined with standard […] methods.
Chronic in vivo efficacy of B6V10 was evaluated in streptozotocin-induced diabetic rats and in db/db mice. Streptozotocin-induced (45 mg/kg) diabetic rats were subcutaneously treated with hexaquis(benzylammonium) decavanadate (2.5 μmol/kg) (B6V10, solid squares, FIG. 8A) or with decavanadate (2.5 μmol/kg) (V10, open circles, FIG. 8A) delivered subcutaneously by osmotic minipumps implanted in the dorsal region. Diabetic rats were also sham-operated (untreated, solid diamonds, FIG. 8A). […]

[2] = system: streptozotocin-induced diabetic rats; type: in vivo, rat; conditions: for effect on glycemia / circulating glucose, in words: 2.5 μmol/kg subcutaneous minipumps
Procedure: as §1, §2, §3
To this end, rats were made diabetic by the injection of a large dose of streptozotocin (100 mg/kg) that eliminates β-pancreatic insulin content. […] These streptozotocin-induced diabetic rats were subcutaneously treated with B6V10 (2.5 μmol/kg) (solid squares, FIG. 9A) delivered by osmotic minipumps or left untreated (solid circles, FIG. 9A). Sham-operated nondiabetic rats were also untreated (solid triangles, FIG. 9A).
The concentration of circulating glucose under these conditions was also assayed. After 28 days of treating diabetic rats with hexaquis(benzylammonium) decavanadate (2.5 μmol/kg) (wide striped bars, FIG. 9B), or with decavanadate (close striped bars, FIG. 9B) delivered by osmotic minipumps, plasma insulin and glucose were measured. Untreated diabetic (solid bars, FIG. 9B) or nondiabetic rats (open bars, FIG. 9B) were similarly assayed as controls.

[3] = system: protein kinase B / insulin receptor phosphorylation; assay: Intracellular insulin signalling in isolated rat adipocytes (protein kinase B and insulin receptor phosphorylation); type: cell-based, Wistar rats
Procedure: Isolated fat cells were disrupted for total membrane preparation by hypo-osmotic lysis in a 20 mM HES buffer and an antiprotease and antiphosphatase cocktail as reported by Abella et al. (2003, Diabetes 52: 1004-1013). Protein concentrations were determined by the Bradford method (Bradford, 1976, Anal. Biochem. 72: 248-254) with gamma-globulin as protein concentration standard. Immunoprecipitation and immunoblot assays were performed as previously described by Abella et al. (2004, Diabetologia 47: 429-438) with the use of a monoclonal antiphosphotyrosine antibody for the immunoprecipitation and an anti-insulin receptor antibody for immunobloting, respectively. SDS-polyacrylamide gel electrophoresis was performed on membrane proteins following conventional procedures. Proteins were transferred to Immobilon and immunoblotting was performed as reported by Castello et al. (1994, J. Biol. Chem. 269: 5905-5912).
The mechanism of action of B6V10 was investigated in isolated rat adipocytes. Adipose cells from Wistar rats were incubated for different times in the presence of 25 μM hexaquis(benzylammonium) decavanadate (B6V10). Cells were also incubated in the presence of insulin (100 nM, 45 min), decavanadate (25 μM, 45 min) or semicarbazide (1 mM, 45 min). Subsequently, 2-deoxyglucose uptake (results shown in FIG. 7A), tyrosine phosphorylation of insulin receptor (FIG. 7B), phospho-Thr^308-protein kinase B (FIG. 7C) and phospho-Ser^473-protein kinase B (FIG. 7D) was measured. […] The phosphorylation of protein kinase B induced by B6V10 was parallel to activation of glucose transport (FIGS. 7C and 7D).
The effects of incubation with semicarbazide or phosphatidylinositol 3-kinase inhibitors were also investigated. Adipose cells were incubated with B6V10 (25 μM, 45 min) in the absence or presence of wortmannin (2 μM, 45 min), LY294002 (10 μM, 45 min) or semicarbazide (1 mM, 45 min) and thereafter 2-deoxyglucose uptake was determined during 5 min.

[4] = streptozotocin 100 mg/kg, 2.5 μmol/kg minipumps, 28 days

Substance | glycemia [1] | effect on glycemia over the whole oral treatment, in words [1] | effect on glycemia over the whole oral treatment, in words ([1]; listed as sodium decavanadate) | effect on glycemia / circulating glucose, in words ([2]; streptozotocin 100 mg/kg) | phosphorylation (activation) of protein kinase B, in words ([3]; isolated rat adipocytes, 25 μM) | time at which decrease of hyperglycemia was detected ([1]; oral 5 μmol/kg/day) | effect on hyperglycemia, in words ([1]; oral 5 μmol/kg/day for seven days) | effect of the dosage increase on glycemia, in words ([1]; oral 10 μmol/kg/day for an additional ten days after seven days at 5 μmol/kg/day) | effect on body weight or organ weights ([2]; rat, in vivo) | plasma glucose after 28 days of treatment [2, 4] | plasma insulin after 28 days of treatment [2, 4] | effect of semicarbazide on protein kinase B phosphorylation induced by the compound ([3]; 1 mM semicarbazide, 45 min) | earliest time at which protein kinase B phosphorylation was detectable ([3]; isolated rat adipocytes, 25 μM) [min] | tyrosine phosphorylation of insulin receptors ([3]; isolated rat adipocytes, 25 μM)
sodium decavanadate [Example V10, reference compound] | approximately 450 mg/dl | did not alter glycemia | not affected substantially | did not show any change in circulating glucose | not observed |  |  |  |  |  |  |  |  | 
hexaquis(benzylammonium) decavanadate [Example B6V10] | approximately 250 mg/dl | significant correction of hyperglycemia |  | reducing glycemia | rapidly stimulated protein kinase B | after but two days of treatment | moderate decrease of hyperglycemia | additional decrease in glycemia | did not affect body weight or organ weights | plasma glucose was reduced | without any observable change in the amount of insulin | blocked by semicarbazide | 2.5 | undetectable
